Experimental findings from ChEMBL document CHEMBL2057175, “New structure-activity relationships of A- and D-ring modified steroidal aromatase inhibitors: design, synthesis, and biochemical evaluation” (J Med Chem, 2012) are described below.

Data set [1] has as its target T1, Aromatase (Homo sapiens, UniProt P11511).
T1 sequence (P11511 whole entry): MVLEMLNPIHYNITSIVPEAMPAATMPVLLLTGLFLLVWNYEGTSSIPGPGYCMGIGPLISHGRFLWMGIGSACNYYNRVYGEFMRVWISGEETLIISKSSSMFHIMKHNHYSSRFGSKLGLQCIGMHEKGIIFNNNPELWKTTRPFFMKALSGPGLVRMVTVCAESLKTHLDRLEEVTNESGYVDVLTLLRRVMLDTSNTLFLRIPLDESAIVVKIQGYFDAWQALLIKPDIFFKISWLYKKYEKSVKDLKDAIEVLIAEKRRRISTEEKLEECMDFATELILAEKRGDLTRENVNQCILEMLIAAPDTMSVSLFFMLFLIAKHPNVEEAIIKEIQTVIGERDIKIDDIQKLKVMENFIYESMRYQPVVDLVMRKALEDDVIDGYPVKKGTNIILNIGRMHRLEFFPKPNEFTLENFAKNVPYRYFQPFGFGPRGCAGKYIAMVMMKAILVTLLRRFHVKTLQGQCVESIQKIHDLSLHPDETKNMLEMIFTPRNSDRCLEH
Particulars: 0.25 h, read-out: INH; call rule not given here.

The target of data set [2] is T1, Aromatase. Kind of data set: Inhibition of aromatase in human placental microsomes using [1beta-3H]androstenedione as substrate after 15 mins by liquid scintillation counting. Details: species or system Placenta.
Data set [3] concerns the target T1, Aromatase. Kind of data set: Competitive inhibition of aromatase in human microsomes using [1beta-3H]androstenedione as substrate after 5 mins by Lineweaver-Burk plot analysis. Details: species or system Microsome.
Data set [4] addresses T1, Aromatase. In words: Inhibition of aromatase in human microsomes using [1beta-3H]androstenedione as substrate after 5 mins by Dixon plot analysis. Particulars: read-out: Ki(app). Details: species or system Microsome.

SMILES strings stand for the structures.

Regarding `C[C@]12C[C@H]3O[C@H]3C[C@@H]1CC[C@@H]1[C@@H]2CC[C@]2(C)C(=O)CC[C@@H]12`, the inhibition at 2 µM in data set [1] turned out to be 70.7%. The compound further had an IC50 in data set [2] of 1150 nM.
As for `C[C@]12C=CCC[C@@H]1CC[C@@H]1[C@@H]2CC[C@]2(C)C(=O)CC[C@@H]12`, the inhibition at 2 µM in data set [1] is 56%.
For `C[C@]12CC[C@H]3[C@@H](CC[C@@]45O[C@@H]4CCC[C@]35C)[C@@H]1CCC2=O`, the inhibition at 2 µM in data set [1] came to 84.6%. Further, the IC50 in data set [2] turned out to be 970 nM. Also, in data set [3], the “inhibition (INH)” value is reported as “Active”. Moreover, in data set [4], the Ki worked out at 86 nM.
Regarding `C[C@]12CC[C@H](O)C=C1CC[C@@H]1[C@@H]2CC[C@]2(C)C(=O)CC[C@@H]12`, the inhibition at 2 µM in data set [1] was determined as 93.1%. The “inhibition (INH)” value in data set [3] is recorded as “Active”.
As to `C[C@]12CC[C@@H](O)C=C1CC[C@@H]1[C@@H]2CC[C@]2(C)C(=O)CC[C@@H]12`, in data set [1], the inhibition at 2 µM is 60.8%.
Regarding `C[C@]12[C@@H](CC[C@@H]3[C@@H]1CC[C@]1(C)C(=O)CC[C@@H]31)CC[C@@H]1O[C@@H]12`, the inhibition at 2 µM in data set [1] was determined as 40%.
The same measure, in the same setting: in the case of `CC(=O)O[C@H]1CC[C@H]2[C@@H]3CCC4=C[C@@H](O)CC[C@]4(C)[C@H]3CC[C@]12C` it was 4.6%.
As for `C[C@]12CC[C@H]3O[C@H]3[C@@H]1CC[C@@H]1[C@@H]2CC[C@]2(C)C(=O)CC[C@@H]12`, the “inhibition (INH)” value in data set [3] is “Active”.
For the compound `CC(=O)Oc1ccccc1C(=O)OC1=C2CC[C@@H]3[C@H](CC[C@]4(C)C(=O)CC[C@@H]34)[C@@]2(C)CCC1=O`, in data set [1], the inhibition at 2 µM worked out at 68.7%.
`C[C@]12CCC=C[C@@H]1CC[C@@H]1[C@@H]2CC[C@]2(C)C(=O)CC[C@@H]12`: the “inhibition (INH)” value in data set [3] was “Active”. Besides, the Ki in data set [4] stood at 50 nM.
For `C[C@]12CCCC=C1CC[C@@H]1[C@@H]2CC[C@]2(C)C(=O)CC[C@@H]12`, the inhibition at 2 µM in data set [1] is 97.8%.
As to `CC(=O)OC1=CCC[C@@]2(C)[C@H]1CC[C@@H]1[C@@H]2CC[C@]2(C)C(=O)CC[C@@H]12`, the inhibition at 2 µM in data set [1] amounted to 33.9%.
`C[C@]12CCC=C[C@@H]1CC[C@@H]1[C@@H]2CC[C@]2(C)C(=S)CC[C@@H]12`: the inhibition at 2 µM in data set [1] is 41.5%.
On to `C[C@]12CC=CC[C@@H]1CC[C@@H]1[C@@H]2CC[C@]2(C)C(=O)CC[C@@H]12`, for which the inhibition at 2 µM in data set [1] was 72%. The same compound came in with an IC50 in data set [2] of 1730 nM. For the same compound, the “inhibition (INH)” value in data set [3] is “Active”. For the same compound, the Ki in data set [4] was 9500 nM.

The IC50 is the concentration needed to halve the response being measured. A lower IC50 goes with greater potency in that assay.
